Measurements as given in PubChem BioAssay (NCI).
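Five compound concentrations were applied to cells in 96-well plates for 48 hours; endpoints were derived by simple linear interpolation of the resulting dose-response curve. GI50 is the concentration that inhibits growth by half. The concentration for full growth arrest is given as TGI.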

How the values were obtained:
Assay in all cases: DTP human tumour cell line panel, 48 h
A549 NSCLC = system: A549 NSCLC
KM12 colon = system: KM12 colon
786-0 renal = system: 786-0 renal
EKVX NSCLC = system: EKVX NSCLC
MCF7 breast = system: MCF7 breast
M14 melanoma = system: M14 melanoma
SK-OV-3 ovarian = system: SK-OV-3 ovarian
SK-MEL-5 melanoma = system: SK-MEL-5 melanoma
RPMI-8226 leukemia = system: RPMI-8226 leukemia
DU-145 prostate = system: DU-145 prostate
MOLT-4 leukemia = system: MOLT-4 leukemia
LOX IMVI melanoma = system: LOX IMVI melanoma
IGROV1 ovarian = system: IGROV1 ovarian
NCI-H522 lung = system: NCI-H522 lung
MDA-MB-231 breast = system: MDA-MB-231 breast
TK-10 renal = system: TK-10 renal
OVCAR-8 ovarian = system: OVCAR-8 ovarian
NCI/ADR-RES ovarian = system: NCI/ADR-RES ovarian
NCI-H23 lung = system: NCI-H23 lung
OVCAR-4 ovarian = system: OVCAR-4 ovarian
NCI-H226 lung = system: NCI-H226 lung
HCT-15 colon = system: HCT-15 colon
CAKI-1 renal = system: CAKI-1 renal
UO-31 renal = system: UO-31 renal
SK-MEL-2 melanoma = system: SK-MEL-2 melanoma
PC-3 prostate = system: PC-3 prostate
SR leukemia = system: SR leukemia
HL-60(TB) leukemia = system: HL-60(TB) leukemia
K-562 leukemia = system: K-562 leukemia
MALME-3M melanoma = system: MALME-3M melanoma
CCRF-CEM leukemia = system: CCRF-CEM leukemia
T-47D breast = system: T-47D breast
HT29 colon = system: HT29 colon
NCI-H460 lung = system: NCI-H460 lung
COLO 205 colon = system: COLO 205 colon
HOP-62 NSCLC = system: HOP-62 NSCLC
OVCAR-5 ovarian = system: OVCAR-5 ovarian
HS 578T breast = system: HS 578T breast
SNB-19 CNS = system: SNB-19 CNS
SW-620 colon = system: SW-620 colon
MDA-MB-435 = system: MDA-MB-435
SK-MEL-28 melanoma = system: SK-MEL-28 melanoma
RXF 393 renal = system: RXF 393 renal
HCC-2998 colon = system: HCC-2998 colon
UACC-257 melanoma = system: UACC-257 melanoma
A498 renal = system: A498 renal
SN12C renal = system: SN12C renal
UACC-62 melanoma = system: UACC-62 melanoma
U251 CNS = system: U251 CNS

**Q.** For `O=C(CCCCCn1c2ccccc2c2c3c(c4c5ccccc5[nH]c4c21)C(=O)N(O)C3=O)N1CCOCC1`, which GI50 (A549 NSCLC) is on record?
**A.** The GI50 was 4.22 µM.

**Q.** And the TGI (A549 NSCLC)?
**A.** The TGI was 24 µM.

**Q.** And the GI50 (KM12 colon)?
**A.** The GI50 was 2.14 µM.

**Q.** What about the TGI (KM12 colon) of the same compound?
**A.** Its TGI is 5.03 µM.

**Q.** What about the GI50 (786-0 renal) of the same compound?
**A.** Its GI50 is 1.99 µM.

**Q.** What about the TGI (786-0 renal) of the same compound?
**A.** Its TGI is 4.91 µM.

**Q.** And the GI50 (EKVX NSCLC)?
**A.** Its GI50 is 4.62 µM.

**Q.** What about the TGI (EKVX NSCLC) of the same compound?
**A.** Its TGI is 43.3 µM.

**Q.** And the GI50 (MCF7 breast)?
**A.** The GI50 was 1.41 µM.

**Q.** What about the TGI (MCF7 breast) of the same compound?
**A.** The TGI was > 100 µM.

**Q.** And the GI50 (M14 melanoma)?
**A.** The GI50 was 2.14 µM.

**Q.** And the TGI (M14 melanoma)?
**A.** The TGI was 5.52 µM.

**Q.** What about the GI50 (SK-OV-3 ovarian) of the same compound?
**A.** The GI50 was 2.27 µM.

**Q.** And the TGI (SK-OV-3 ovarian)?
**A.** The TGI was 5.81 µM.

**Q.** What about the GI50 (SK-MEL-5 melanoma) of the same compound?
**A.** Its GI50 is 1.64 µM.

**Q.** And the TGI (SK-MEL-5 melanoma)?
**A.** Its TGI is 3.06 µM.

**Q.** What about the GI50 (RPMI-8226 leukemia) of the same compound?
**A.** Its GI50 is 1.97 µM.

**Q.** And the TGI (RPMI-8226 leukemia)?
**A.** Its TGI is 5.43 µM.

**Q.** And the GI50 (DU-145 prostate)?
**A.** Its GI50 is 3.12 µM.

**Q.** What about the TGI (DU-145 prostate) of the same compound?
**A.** Its TGI is 12.2 µM.

**Q.** What about the GI50 (MOLT-4 leukemia) of the same compound?
**A.** The GI50 was 1.88 µM.

**Q.** What about the TGI (MOLT-4 leukemia) of the same compound?
**A.** The TGI was 5.36 µM.

**Q.** And the GI50 (LOX IMVI melanoma)?
**A.** Its GI50 is 1.05 µM.

**Q.** What about the TGI (LOX IMVI melanoma) of the same compound?
**A.** Its TGI is 2.57 µM.

**Q.** What about the GI50 (IGROV1 ovarian) of the same compound?
**A.** Its GI50 is 2.16 µM.

**Q.** What about the TGI (IGROV1 ovarian) of the same compound?
**A.** Its TGI is 4.92 µM.

**Q.** And the GI50 (NCI-H522 lung)?
**A.** Its GI50 is 1.38 µM.

**Q.** What about the TGI (NCI-H522 lung) of the same compound?
**A.** Its TGI is 3.14 µM.

**Q.** And the GI50 (MDA-MB-231 breast)?
**A.** The GI50 was 2.16 µM.

**Q.** And the TGI (MDA-MB-231 breast)?
**A.** The TGI was 5.87 µM.

**Q.** And the GI50 (TK-10 renal)?
**A.** Its GI50 is 2.03 µM.

**Q.** What about the TGI (TK-10 renal) of the same compound?
**A.** The TGI was 5.72 µM.

**Q.** And the GI50 (OVCAR-8 ovarian)?
**A.** Its GI50 is 2.84 µM.

**Q.** And the TGI (OVCAR-8 ovarian)?
**A.** Its TGI is 7.86 µM.

**Q.** What about the GI50 (NCI/ADR-RES ovarian) of the same compound?
**A.** Its GI50 is 5.93 µM.

**Q.** And the TGI (NCI/ADR-RES ovarian)?
**A.** The TGI was > 100 µM.

**Q.** What about the GI50 (NCI-H23 lung) of the same compound?
**A.** The GI50 was 2.11 µM.

**Q.** And the TGI (NCI-H23 lung)?
**A.** Its TGI is 5.47 µM.

**Q.** And the GI50 (OVCAR-4 ovarian)?
**A.** The GI50 was 3.57 µM.

**Q.** What about the TGI (OVCAR-4 ovarian) of the same compound?
**A.** The TGI was > 100 µM.

**Q.** And the GI50 (NCI-H226 lung)?
**A.** Its GI50 is 2.58 µM.

**Q.** And the TGI (NCI-H226 lung)?
**A.** The TGI was 6.51 µM.

**Q.** What about the GI50 (HCT-15 colon) of the same compound?
**A.** The GI50 was 2.67 µM.

**Q.** And the TGI (HCT-15 colon)?
**A.** Its TGI is 8.32 µM.

**Q.** And the GI50 (CAKI-1 renal)?
**A.** The GI50 was 2.13 µM.

**Q.** And the TGI (CAKI-1 renal)?
**A.** The TGI was 4.81 µM.

**Q.** What about the GI50 (UO-31 renal) of the same compound?
**A.** The GI50 was 1.6 µM.

**Q.** What about the TGI (UO-31 renal) of the same compound?
**A.** Its TGI is 4.28 µM.

**Q.** And the GI50 (SK-MEL-2 melanoma)?
**A.** The GI50 was 2.4 µM.

**Q.** And the TGI (SK-MEL-2 melanoma)?
**A.** The TGI was 5.47 µM.

**Q.** What about the GI50 (PC-3 prostate) of the same compound?
**A.** The GI50 was 2.28 µM.

**Q.** And the TGI (PC-3 prostate)?
**A.** Its TGI is 6.22 µM.

**Q.** And the GI50 (SR leukemia)?
**A.** Its GI50 is 1.12 µM.

**Q.** And the TGI (SR leukemia)?
**A.** The TGI was 5.45 µM.

**Q.** And the GI50 (HL-60(TB) leukemia)?
**A.** The GI50 was 2.01 µM.

**Q.** And the TGI (HL-60(TB) leukemia)?
**A.** Its TGI is 5.45 µM.

**Q.** And the GI50 (K-562 leukemia)?
**A.** Its GI50 is 2.11 µM.

**Q.** What about the TGI (K-562 leukemia) of the same compound?
**A.** The TGI was 6.23 µM.

**Q.** What about the GI50 (MALME-3M melanoma) of the same compound?
**A.** The GI50 was 2.26 µM.

**Q.** And the TGI (MALME-3M melanoma)?
**A.** Its TGI is 6.34 µM.

**Q.** What about the GI50 (CCRF-CEM leukemia) of the same compound?
**A.** Its GI50 is 1.43 µM.

**Q.** What about the TGI (CCRF-CEM leukemia) of the same compound?
**A.** The TGI was 4.93 µM.

**Q.** And the GI50 (T-47D breast)?
**A.** Its GI50 is 2.61 µM.

**Q.** What about the TGI (T-47D breast) of the same compound?
**A.** The TGI was 7.89 µM.

**Q.** What about the GI50 (HT29 colon) of the same compound?
**A.** Its GI50 is 2.42 µM.

**Q.** And the TGI (HT29 colon)?
**A.** Its TGI is 5.88 µM.

**Q.** And the GI50 (NCI-H460 lung)?
**A.** Its GI50 is 2.16 µM.

**Q.** And the TGI (NCI-H460 lung)?
**A.** Its TGI is 4.69 µM.

**Q.** What about the GI50 (COLO 205 colon) of the same compound?
**A.** The GI50 was 2.3 µM.

**Q.** What about the TGI (COLO 205 colon) of the same compound?
**A.** The TGI was 5.65 µM.

**Q.** What about the GI50 (HOP-62 NSCLC) of the same compound?
**A.** The GI50 was 2.77 µM.

**Q.** And the TGI (HOP-62 NSCLC)?
**A.** The TGI was 6.74 µM.

**Q.** And the GI50 (OVCAR-5 ovarian)?
**A.** Its GI50 is 3.49 µM.

**Q.** And the TGI (OVCAR-5 ovarian)?
**A.** Its TGI is > 100 µM.

**Q.** What about the GI50 (HS 578T breast) of the same compound?
**A.** Its GI50 is 2.78 µM.

**Q.** What about the TGI (HS 578T breast) of the same compound?
**A.** The TGI was 7.95 µM.

**Q.** And the GI50 (SNB-19 CNS)?
**A.** The GI50 was 3.05 µM.

**Q.** What about the TGI (SNB-19 CNS) of the same compound?
**A.** The TGI was 36.8 µM.

**Q.** And the GI50 (SW-620 colon)?
**A.** The GI50 was 2.12 µM.

**Q.** And the TGI (SW-620 colon)?
**A.** The TGI was 6.02 µM.

**Q.** What about the GI50 (MDA-MB-435) of the same compound?
**A.** The GI50 was 2.25 µM.

**Q.** What about the TGI (MDA-MB-435) of the same compound?
**A.** Its TGI is 5.58 µM.

**Q.** And the GI50 (SK-MEL-28 melanoma)?
**A.** The GI50 was 2.32 µM.

**Q.** And the TGI (SK-MEL-28 melanoma)?
**A.** Its TGI is 5.4 µM.

**Q.** And the GI50 (RXF 393 renal)?
**A.** The GI50 was 1.81 µM.

**Q.** And the TGI (RXF 393 renal)?
**A.** Its TGI is 3.37 µM.

**Q.** And the GI50 (HCC-2998 colon)?
**A.** Its GI50 is 1.85 µM.

**Q.** And the TGI (HCC-2998 colon)?
**A.** Its TGI is 3.54 µM.

**Q.** And the GI50 (UACC-257 melanoma)?
**A.** The GI50 was 3.19 µM.

**Q.** What about the TGI (UACC-257 melanoma) of the same compound?
**A.** Its TGI is 7.76 µM.

**Q.** And the GI50 (A498 renal)?
**A.** The GI50 was 1.29 µM.

**Q.** What about the TGI (A498 renal) of the same compound?
**A.** Its TGI is 2.7 µM.

**Q.** And the GI50 (SN12C renal)?
**A.** Its GI50 is 3.37 µM.

**Q.** And the TGI (SN12C renal)?
**A.** The TGI was > 100 µM.

**Q.** And the GI50 (UACC-62 melanoma)?
**A.** The GI50 was 2.05 µM.

**Q.** And the TGI (UACC-62 melanoma)?
**A.** Its TGI is 5.4 µM.

**Q.** What about the GI50 (U251 CNS) of the same compound?
**A.** Its GI50 is 2.26 µM.

**Q.** What about the TGI (U251 CNS) of the same compound?
**A.** The TGI was 5.59 µM.
